# According to patent US20170320837A1, “METHOD FOR TREATING INFLAMMATORY DISORDERS” (Synta Pharmaceuticals Corp., priority 2006, published 2017):
# pIC50: −log10 of the molar value. Entries after “also recorded” stand apart in the source; their conditions may differ.
# What was measured:
# GR (human recombinant) = molecular target: T1, GR (human recombinant) (Homo sapiens, UniProt P04150); test: GR competitive assay, fluorescence polarization with Fluormone GS1; type: binding; conditions: tested up to 10 uM
# T1 construct: purchased Invitrogen P2816
# T1 sequence (P04150 1-777): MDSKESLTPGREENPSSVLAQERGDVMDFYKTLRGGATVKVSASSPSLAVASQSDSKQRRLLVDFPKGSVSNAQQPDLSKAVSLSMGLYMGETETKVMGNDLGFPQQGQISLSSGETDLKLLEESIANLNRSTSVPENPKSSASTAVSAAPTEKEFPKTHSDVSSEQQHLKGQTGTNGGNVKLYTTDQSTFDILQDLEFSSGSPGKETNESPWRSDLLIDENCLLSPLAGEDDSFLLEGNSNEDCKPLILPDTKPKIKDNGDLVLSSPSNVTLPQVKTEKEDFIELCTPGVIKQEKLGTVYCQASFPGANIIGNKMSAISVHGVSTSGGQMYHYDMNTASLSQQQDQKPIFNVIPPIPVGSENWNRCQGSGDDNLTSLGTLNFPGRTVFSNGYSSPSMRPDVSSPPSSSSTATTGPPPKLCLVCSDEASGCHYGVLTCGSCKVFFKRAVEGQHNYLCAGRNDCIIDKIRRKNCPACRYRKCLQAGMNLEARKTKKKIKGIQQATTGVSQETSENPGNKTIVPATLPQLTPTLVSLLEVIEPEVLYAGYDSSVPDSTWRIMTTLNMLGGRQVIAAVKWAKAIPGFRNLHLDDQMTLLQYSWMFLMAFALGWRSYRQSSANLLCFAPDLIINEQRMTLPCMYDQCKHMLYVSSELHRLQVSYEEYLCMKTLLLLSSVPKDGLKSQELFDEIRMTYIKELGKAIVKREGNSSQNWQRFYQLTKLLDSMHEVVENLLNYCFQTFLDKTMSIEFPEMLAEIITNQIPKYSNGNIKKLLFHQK
# Procedure: To determine whether the compounds of the invention bind directly to the glucocorticoid receptor, GR competitive assay was performed using a kit from Invitrogen (Cat #P2816). GR (human recombinant) was added to a fluorescent glucocorticoid (Fluormone™ GS1) ligand with a test compound at various concentrations (a serial dilution of the test compound was done on a 96-well plate) and incubated for 2-4 hours in the dark. […] The shift in polarization value in the presence of a test compound was used to determine relative affinity of test compounds for glucocorticoid receptors. The buffer plus Fluormone™ GS1 and glucocorticoid receptor in the absent of s test compound was used as negative control presenting 0% competition. […] The IC50 was calculated based on the inhibition rate of binding activity of the testing compound.
# glucocorticoid receptor [1] = test: Glucocorticoid receptor levels in human PBMCs, immunoblot (Example 114); type: cell-based; conditions: human PBMCs, 0, 1, 5, 25, or 100 nM, 16 hours
# Procedure: (§1) The whole blood samples from healthy human volunteer and male SD rat were collected and the PBMCs were isolated immediately as follows. 5 ml of whole blood was diluted with an equal volume of sterile 1× PBS. The diluted blood was overlayed carefully into a sterile centrifuge tube without disturbing the bottom layer that containing 5 ml of Ficoll-paque plus density gradient solution. The layered blood was centrifuged at 1500×g for 30 minutes at room temperature. The middle thin layer containing PBMCs was carefully removed, transferred to another sterile centrifuge tube, and washed twice with PBS to remove […]. Isolated rat and human PBMCs were cultured in 10% fetal bovine serum/DMEM.
# (§2) The rat and human PBMCs were treated with DMSO (control), Compound 226, Compound 287, or 17-DMAG at concentrations of 0, 1, 5, 25, or 100 nM (in DMSO) for 16 hours. The cells were then collected and rinsed in ice-cold PBS and stored in liquid nitrogen until further analysis.
# (§3) PBMC were prepared in Western lysis buffer (10 mmol/L HEPES, 42 mmol/L KCl, 5 mmol/L MgCl2, 0.1 mmol/L EDTA, 0.1 mmol/L EGTA, 1 mmol/L DTT, 1% Triton X-100, freshly supplemented with 1× protease inhibitor cocktail from Pierce, Rockford, Ill.). Lysate protein concentrations were quantified by bicinchoninic acid assay (Pierce) and normalized. Equal amounts of protein were loaded onto 10% NuPAGE Bis-Tris Gels (Invitrogen) and subsequently transferred onto polyvinylidene difluoride membranes. The membranes were blocked in 5% milk in TBST. Primary antibody of glucocorticod receptor from Santa Cruz Biotechnology, Inc. was added and incubated at room temperature for 1 hour with shaking. The blots were washed extensively in TBST before secondary antibodies were added for overnight incubation at 4° C. with gentle shaking. The blots were again washed extensively and developed with SuperSignal West Femto substrate (Pierce). The immunoblot analysis was performed to measure the level of total GRs by Quantity One software from Bio-Rad.
# glucocorticoid receptors = molecular target: T2, glucocorticoid receptors (Homo sapiens, UniProt P04150); test: Competitive binding assay with tritium labeled dexamethason in Hela S3 cells (legend of FIG. 3)
# T2 construct: endogenous in cells; host or cells: HeLa S3
# T2 sequence (P04150 1-777): T1 sequence (P04150 1-777)
# human PBMCs = test: Production of inflammatory cytokines in stimulated human PBMCs; type: cell-based; conditions: IFN-γ primed PBMCs stimulated with LPS or SAC, 16-18 hrs
# Procedure: Human PBMC were isolated using Ficoll 400 and diatrizoate sodium (density 1.077 g/ml) solution and purified with RosetteSep (StemCell Technologies). The PBMCs were primed with human IFN-γ (800 U/ml, Pierce Biotechnology #R-IFNG-50), seeded at 0.5×10^6/100 μL/well in 96-well U-bottom plate with culture medium (RPMI 1640, 10% FBS, 1% Pen/Strep), and incubated in 37° C. for overnight. […] About 180 ul/well of supernatant was collected and measured using ELISA kit or Bio-plex (Bio-Rad) to determine the levels of cytokine production. The cell survival was determined using Cell Counting Kit-8 (Dojindo Molecular Technologies, Inc.). […]
# glucocorticoid receptor [2] = test: Glucocorticoid receptor levels in human PBMCs, renal cells and cancer cell lines, immunoblot (Example 115); type: cell-based
# Procedure: Normal human renal proximal tubule epithelial cells and tumor cell lines of MV-4-11, Kasumi-1, and Hela were obtained from Cambrex Bioproducts and American Type Culture Collection, respectively. Cells were cultured with 10% fetal bovine serum/DMEM.
# The whole blood samples from healthy human volunteer were collected and the PBMCs were isolated immediately as described in Example 116. Isolated human PBMCs were cultured in 10% fetal bovine serum/DMEM.
# as §2, with “Human PBMCs, kasumi-1, My-4-11, Hela,” for “The rat”, “renal proximal tubule epithelial cells” for “PBMCs”, “287,” for “287, or”, “0,” for “0, 1,”
# as §3, with “PBMC, renal and tumor cell pellets” for “PBMC”, “0.1. mmol/LEGTA,” for “0.1 mmol/L EGTA,”, “glucocorticoid” for “glucocorticod”, “(Pierce).” for “(Pierce). The immunoblot analysis was performed to measure the level of total GRs by Quantity One software from Bio-Rad.”
# glucocorticoid receptor [3] = test: Glucocorticoid receptor levels in rat PBMCs, immunoblot; type: cell-based; conditions: rat PBMCs, 0, 1, 5, 25, or 100 nM, 16 hours
# Procedure: as §1, §2, §3
# glucocorticoid receptor [4] = test: Glucocorticoid receptor levels in PBMCs of rats after four days of intravenous dosing, immunoblot; type: in vivo, Sprague-Dawley (SD) rats
# Procedure: The test compounds were administered daily intravenously via tail vein for four days. […] All rats were sacrificed at the study day 5. About 1-2 mL of blood samples were collected per animal. The blood samples were then pulled together as a group for PBMC isolation.
structure (smiles),measurement,setting,value
"CC(C)c1cc(-c2nnc(O)n2-c2ccc3c(ccn3C)c2)c(O)cc1O [Compound 226, 3-(2,4-dihydroxy-5-isopropyl-phenyl)-4-(1-methyl-indol-5-yl)-5-hydroxy-[1,2,4]triazole]",pIC50,GR (human recombinant),< 5.00
same,expression of glucocorticoid receptors,glucocorticoid receptor [1],dose dependent decrease; also recorded: decreased the expression of glucocorticoid receptor in a dose dependent manner
same,displacement of tritium labeled dexamethason,glucocorticoid receptors,did not displace the tritium labeled dexamethason
same,inhibition of the production of proinflammatory cytokines,human PBMCs,more broadly inhibits the production of proinflammatory cytokines than dexamethasone or 17-DMAG
same,"suppression of glucocorticoid receptors, cancer cells compared with normal cells",glucocorticoid receptor [2],more pronounced in cancer cell than in normal cells
same,expression of glucocorticoid receptors,"glucocorticoid receptor [2]; HeLa cells, 0, 5, 25, or 100 nM, 16 hrs",dose dependent decrease
same,expression of glucocorticoid receptors,"glucocorticoid receptor [2]; Kasumi-1 AML cancer cells, 0, 5, 25, or 100 nM, 16 hrs",dose dependent decrease
same,expression of glucocorticoid receptors,"glucocorticoid receptor [2]; MV-4-11 AML cancer cells, 0, 5, 25, or 100 nM, 16 hrs",dose dependent decrease
same,expression of glucocorticoid receptors,glucocorticoid receptor [2]; cancer cells as well as normal PBMCs and renal cells,suppress the expression of glucocorticoid receptors
same,expression of glucocorticoid receptors,"glucocorticoid receptor [2]; human PBMCs, 0, 5, 25, or 100 nM, 16 hrs",dose dependent decrease
same,expression of glucocorticoid receptors,"glucocorticoid receptor [2]; human renal cells, 0, 5, 25, or 100 nM, 16 hrs",dose dependent decrease
same,expression of glucocorticoid receptors,glucocorticoid receptor [3],dose dependent decrease; also recorded: decreased the expression of glucocorticoid receptor in a dose dependent manner
same,size of the decrease of GR expression compared with the other treatments,glucocorticoid receptor [4]; 50 mg/kg daily intravenously for four days,most significant
same,expression of glucocorticoid receptor (GR) in isolated PBMC compared with vehicle,"glucocorticoid receptor [4]; daily intravenously for four days, 17-DMAG 6 mg/kg, Paclitaxel 5 mg/kg, Compound 264 80 mg/kg, Compound 226 50 mg/kg",decreased
